Like-named read-outs stand apart in the source and are kept apart here.
Experiments:
[1] = Cytotoxicity assay in MT-4 cells; type: cell-based, human; conditions: human, uninfected MT-4 cells, 5 days incubation; read-out: CC50
Summary of the method: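 Infected MT-4 cells (HIV-1 IIIB, fresh 1:250 dilution of concentrated stock) or mock-infected cells exposed to compounds for 5 days at 37 °C. Viability by CellTiter-Glo luminescence; 5 μM AZT positive control, no-drug negative control. Uninfected cells used for cytotoxicity, with 10 μM puromycin as base-level cytotoxicity control.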

pLai RLuc reporter virus = test: microbe, parasite or virus in culture; type: cell-based, HIV; conditions: Human immunodeficiency virus 1, 72 h
Summary of the method: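 MT-4 cells pre-infected 2 h at 37 °C with pLai RLuc virus, then exposed to 1:3 serial dilutions of compound in RPMI/10% FBS with or without 50% human serum for 72 h at 37 °C. Renilla luminescence read-out; serum shift = EC50(HS/CCM)/EC50(CCM).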

HIV-1 (IIIB) = test: Antiviral assay in MT-4 cells (HIV MT-4 antiviral assay); type: cell-based; conditions: HIV-1 (IIIB) in MT-4 cells, 5 days incubation
Summary of the method: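 MT-4 cells infected with HIV-1 IIIB (1:250 diluted stock) and exposed to 1:3 serially diluted compound in RPMI with 10% FBS. Viability read by CellTiter-Glo luminescence after 5 days at 37° C; mock-infected cells and 5 μM AZT as controls.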

[2] = read-out: Antiviral Serum Shift RLuc 50% HS, HS/CCM (RPMI media, 10% FBS, 50% HS, 1% P/S), 72-h incubation
[3] = read-out: Antiviral Serum Shift RLuc CCM, CCM (RPMI media, 10% FBS, 1% P/S), 72-h incubation
[4] = Human immunodeficiency virus 1, IIIB, MT4, 120 h, read-out: EC50

| Compound | CC50 at 5 days [1] [nM] | EC50 (pLai RLuc reporter virus; [2]) [nM] | EC50 (pLai RLuc reporter virus; [3]) [nM] | EC50 (HIV-1 (IIIB); [4]) [nM] | EC50 (HIV-1 (IIIB); Human immunodeficiency virus 1, IIIB, MT4, 120 h) [nM] | EC50 (HIV-1 (IIIB); read-out: EC50) [nM] |
| --- | --- | --- | --- | --- | --- | --- |
| C[C@H]1C=CC[C@H]2CN1C(=O)c1c(O)c(=O)c(C(=O)NCc3c(F)cc(F)cc3F)cn12 [Example 148, (3S,7S)-12-hydroxy-3-methyl-1,11-dioxo-N-(2,4,6-trifluorobenzyl)-1,6,7,11-tetrahydro-3H-2,7-methanopyrido[1,2-a][1,4]diazonine-10-carboxamide] | 13800 | 6.34 | 0.182 | 1.67 | – | – |
| O=C(NCc1c(F)cc(F)cc1F)c1cn2c(c(O)c1=O)C(=O)N1C[C@@H](O)CC[C@H]2C1 (single isomer, unassigned) [Example 79-1] | > 50000 | 23.5 | 19.5 | 58.5 | – | – |
| C[C@@H]1CC[C@H]2CN(C1)C(=O)c1c(O)c(=O)c(C(=O)NCc3c(F)cc(F)cc3F)cn12 [Example 137-2, (4R,7S)-12-hydroxy-4-methyl-1,11-dioxo-N-(2,4,6-trifluorobenzyl)-1,4,5,6,7,11-hexahydro-3H-2,7-methanopyrido[1,2-a][1,4]diazonine-10-carboxamide] | 20700 | 0.821 | 0.182 | 2.02 | – | – |
| C[C@]1(F)CCCN2C[C@H]1n1cc(C(=O)NCc3c(F)cc(F)cc3F)c(=O)c(O)c1C2=O [Example 179, (6S,7R)-6-fluoro-12-hydroxy-6-methyl-1,11-dioxo-N-(2,4,6-trifluorobenzyl)-1,4,5,6,7,11-hexahydro-3H-2,7-methanopyrido[1,2-a][1,4]diazonine-10-carboxamide] | 13100 | 0.803 | 0.335 | 1.49 | – | – |
| O=C(NCc1ccc(F)cc1F)c1cn2c(c(O)c1=O)C(=O)N1CC/C=C\C[C@@H]2C1 [Example 44-1, (8R,Z)—N-(2,4-difluorobenzyl)-13-hydroxy-1,12-dioxo-1,3,4,7,8,12-hexahydro-2,8-methanopyrido[1,2-a][1,4]diazecine-11-carboxamide] | 10700 | 2.33 | 0.677 | 1.71 | – | – |
| O=C(NCc1c(F)cc(F)cc1F)c1cn2c(c(O)c1=O)C(=O)N1CCc3ccc(Br)cc3[C@H]2C1 (single isomer, unassigned) [Example 122-1] | 4740 | 4.78 | 0.534 | 2.57 | – | – |
| C[C@@H]1N2C[C@H](CCC1(C)F)n1cc(C(=O)NCc3c(F)cc(F)cc3F)c(=O)c(O)c1C2=O (stereo partly drawn) [Example 144-1, (3S,7S)-4-fluoro-12-hydroxy-3,4-dimethyl-1,11-dioxo-N-(2,4,6-trifluorobenzyl)-1,4,5,6,7,11-hexahydro-3H-2,7-methanopyrido[1,2-a][1,4]diazonine-10-carboxamide] | 9180 | 2.63 | 0.285 | 1.65 | – | – |
| O=C(NCc1c(F)cc(F)cc1F)c1cn2c(c(O)c1=O)C(=O)N1CCOC[C@H]2C1 [Example 20, (7R)-12-Hydroxy-1,11-dioxo-N-(2,4,6-trifluorobenzyl)-1,3,4,6,7,11-hexahydro-2,7-methanopyrido[1,2-d][1,4,7]oxadiazonine-10-carboxamide] | 37200 | 33.4 | 1.83 | 5.6 | – | – |
| C[C@@]12Cc3cc(F)c(F)cc3CN(C1)C(=O)c1c(O)c(=O)c(C(=O)NCc3c(F)cc(F)cc3F)cn12 (single isomer, unassigned) [Example 191-1] | 11600 | 2.69 | 0.611 | 2.61 | – | – |
| O=C(NCc1c(F)cc(F)cc1F)c1cn2c(c(O)c1=O)C(=O)N1CCc3ccc(F)cc3[C@H]2C1 [Example 147, (13S)-11-fluoro-4-hydroxy-3,5-dioxo-N-(2,4,6-trifluorobenzyl)-3,5,8,13-tetrahydro-7H-6,13-methanobenzo[g]pyrido[1,2-a][1,4]diazonine-2-carboxamide] | 6910 | 3.64 | 0.375 | 2.14 | – | – |
| O=C(NCc1ccc(F)cc1F)c1cn2c(c(O)c1=O)C(=O)N1CC[C@@H](F)C[C@@H]2C1 [Example 56-4, (5R, 7R)—N-(2,4-difluorobenzyl)-5-fluoro-12-hydroxy-1,11-dioxo-1,4,5,6,7,11-hexahydro-3H-2,7-methanopyrido[1,2-a][1,4]diazonine-10-carboxamide] | 30500 | 15.4 | 2.16 | 8.09 | – | – |
| C[C@@]12CCCCN(C1)C(=O)c1c(O)c(=O)c(C(=O)NCc3c(F)cc(F)cc3F)cn12 [Example 59-2, (7R)-12-hydroxy-7-methyl-1,11-dioxo-N-(2,4,6-trifluorobenzyl)-1,4,5,6,7,11-hexahydro-3H-2,7-methanopyrido[1,2-a][1,4]diazonine-10-carboxamide] | 18800 | 55.2 | 0.547 | 2.15 | – | – |
| O=C(NCc1ccc(F)cc1F)c1cn2c(c(O)c1=O)C(=O)N1CCc3cc(Cl)ccc3[C@@H]2C1 [Example 140-2, (13R)-10-chloro-N-(2,4-difluorobenzyl)-4-hydroxy-3,5-dioxo-3,5,8,13-tetrahydro-7H-6,13-methanobenzo[g]pyrido[1,2-a][1,4]diazonine-2-carboxamide] | 5230 | 22.4 | 0.347 | 1.92 | – | – |
| C[C@H]1[C@@H]2CCCCN1C(=O)c1c(O)c(=O)c(C(=O)NCc3c(F)cc(F)cc3F)cn12 [Example 8, (7S, 13S)-12-hydroxy-13-methyl-1,11-dioxo-N-(2,4,6-trifluorobenzyl)-1,4,5,6,7,11-hexahydro-3H-2,7-methanopyrido[1,2-a][1,4]diazonine-10-carboxamide] | 20800 | 1.41 | 0.41 | – | 1.5 | – |
| O=C(NCc1c(F)cc(F)cc1F)c1cn2c(c(O)c1=O)C(=O)N1CC2CCc2ccccc21 (single isomer, unassigned) [Example 38-1] | 11000 | 360 | 2.64 | – | – | 16.3 |
| O=C(NCc1c(F)cc(F)cc1F)c1cn2c(c(O)c1=O)C(=O)N1CCCC[C@]2(CF)C1 [Example 163-2, (7R)—N-(2,4,6-trifluorobenzyl)-7-(fluoromethyl)-12-hydroxy-1,11-dioxo-1,4,5,6,7,11-hexahydro-3H-2,7-methanopyrido[1,2-a][1,4]diazonine-10-carboxamide] | 13800 | 15.3 | 0.118 | 2.29 | – | – |
| O=C(NCc1ccc(F)cc1F)c1cn2c(c(O)c1=O)C(=O)N1C[C@H]2CCc2cc(Cl)ccc21 [Example 49-2, (12R)-2-chloro-N-(2,4-difluorobenzyl)-7-hydroxy-6,8-dioxo-6,8,13,14-tetrahydro-12H-5,12-methanobenzo[e]pyrido[1,2-a][1,4]diazonine-9-carboxamide] | 7200 | 1.11 | 0.202 | 2.38 | – | – |
| O=C(NCc1c(F)cc(F)c(F)c1F)c1cn2c(c(O)c1=O)C(=O)N1CCCC[C@H]2C1 [Example 125, (7S)-12-hydroxy-1,11-dioxo-N-(2,3,4,6-tetrafluorobenzyl)-1,4,5,6,7,11-hexahydro-3H-2,7-methanopyrido[1,2-a][1,4]diazonine-10-carboxamide] | 10200 | 1.97 | 0.328 | 2.95 | – | – |
